In US9707305B2, “Formulas for diagnosing and treating hormone-dependent cancers and cancers of the organs responsible for steroid hormone synthesis” (Commissariat à l'énergie atomique et aux énergies …, priority 2011, dated 2017):

Test: Biodistribution of the nano-emulsion of Example 1.1 in male mice (Tables 15 to 21)
Assay type: in vivo
Conditions: FVB male mouse
Experimental: In the following examples, the radioactivity was counted with the TRiCarb Counter (Ref: Packard, Liquid Scintillation Analyzers; Models 2200CA).
Fluobeam 700 (Fluoptics) is the apparatus with which the whole of the organs from the biodistribution were analyzed in fluorescence as well as the one with which the biodistribution kinetics of the nano-emulsions were established in vivo. This imaging system allows viewing of the fluorescence in spectral bands from 700 to 850 nm for a 650 nm excitation. The apparatus consists of an electric case containing the laser of class 3B, its power supply and an optical head containing the CCD camera. […]

SMILES: CCCCCCCCCCCCCCCCCCN1/C(=C/C=C/C=C/C2=[N+](CCCCCCCCCCCCCCCCCC)c3ccccc3C2(C)C)C(C)(C)c2ccccc21.[O-][Cl+3]([O-])([O-])[O-] [DiD, l,r-dioctadécyl-3,3,3′,3′-tetramethylindodicarbocyanine (DiD) perchlorate]
- fluorescence intensity in Adrenal gland (2 h): 779.1
- fluorescence intensity in Adrenal gland (4 h): 536.1
- fluorescence intensity in Adrenal gland (6 h): 721.9
- fluorescence intensity in Adrenal gland (16 h): 1086.2
- fluorescence intensity in Adrenal gland (24 h): 1105.9
- fluorescence intensity in Adrenal gland (48 h): 783.7
- fluorescence intensity in Adrenal gland (72 h): 717.3
- fluorescence intensity in Brain (2 h): 186.5
- fluorescence intensity in Brain (4 h): 150.6
- fluorescence intensity in Brain (6 h): 235.9
- fluorescence intensity in Brain (16 h): 134.7
- fluorescence intensity in Brain (24 h): 109.3
- fluorescence intensity in Brain (48 h): 160.4
- fluorescence intensity in Brain (72 h): 14.8
- fluorescence intensity in Fat (2 h): 184.0
- fluorescence intensity in Fat (4 h): 128.3
- fluorescence intensity in Fat (6 h): 221.1
- fluorescence intensity in Fat (16 h): 117.0
- fluorescence intensity in Fat (24 h): 142.1
- fluorescence intensity in Fat (48 h): 185.1
- fluorescence intensity in Fat (72 h): 78.0
- fluorescence intensity in Heart (2 h): 427.6
- fluorescence intensity in Heart (4 h): 306.9
- fluorescence intensity in Heart (6 h): 253.8
- fluorescence intensity in Heart (16 h): 281.5
- fluorescence intensity in Heart (24 h): 239.7
- fluorescence intensity in Heart (48 h): 178.1
- fluorescence intensity in Heart (72 h): 142.3
- fluorescence intensity in Intestine (2 h): 392.1
- fluorescence intensity in Intestine (4 h): 336.2
- fluorescence intensity in Intestine (6 h): 378.0
- fluorescence intensity in Intestine (16 h): 640.4
- fluorescence intensity in Intestine (24 h): 621.0
- fluorescence intensity in Intestine (48 h): 381.6
- fluorescence intensity in Intestine (72 h): 267.8
- fluorescence intensity in Kidney (2 h): 601.1
- fluorescence intensity in Kidney (4 h): 505.0
- fluorescence intensity in Kidney (6 h): 427.7
- fluorescence intensity in Kidney (16 h): 343.0
- fluorescence intensity in Kidney (24 h): 323.1
- fluorescence intensity in Kidney (48 h): 168.3
- fluorescence intensity in Kidney (72 h): 160.3
- fluorescence intensity in Liver (2 h): 831.9
- fluorescence intensity in Liver (4 h): 813.0
- fluorescence intensity in Liver (6 h): 847.4
- fluorescence intensity in Liver (16 h): 1157.2
- fluorescence intensity in Liver (24 h): 1152.7
- fluorescence intensity in Liver (48 h): 988.2
- fluorescence intensity in Liver (72 h): 648.0
- fluorescence intensity in Lung (2 h): 559.9
- fluorescence intensity in Lung (4 h): 446.4
- fluorescence intensity in Lung (6 h): 426.0
- fluorescence intensity in Lung (16 h): 423.5
- fluorescence intensity in Lung (24 h): 406.0
- fluorescence intensity in Lung (48 h): 346.5
- fluorescence intensity in Lung (72 h): 286.6
- fluorescence intensity in Muscle (2 h): 176.7
- fluorescence intensity in Muscle (4 h): 152.3
- fluorescence intensity in Muscle (6 h): 169.3
- fluorescence intensity in Muscle (16 h): 281.9
- fluorescence intensity in Muscle (24 h): 144.9
- fluorescence intensity in Muscle (48 h): 131.7
- fluorescence intensity in Muscle (72 h): 109.2
- fluorescence intensity in Pancreas (2 h): 255.1
- fluorescence intensity in Pancreas (4 h): 295.0
- fluorescence intensity in Pancreas (6 h): 347.0
- fluorescence intensity in Pancreas (16 h): 332.6
- fluorescence intensity in Pancreas (24 h): 268.9
- fluorescence intensity in Pancreas (48 h): 266.2
- fluorescence intensity in Pancreas (72 h): 160.6
- fluorescence intensity in Salivary gland (2 h): 310.0
- fluorescence intensity in Salivary gland (4 h): 297.8
- fluorescence intensity in Salivary gland (6 h): 488.5
- fluorescence intensity in Salivary gland (16 h): 838.8
- fluorescence intensity in Salivary gland (24 h): 501.1
- fluorescence intensity in Salivary gland (48 h): 489.7
- fluorescence intensity in Salivary gland (72 h): 430.2
- fluorescence intensity in Seminal gland (4 h): 179.5
- fluorescence intensity in Seminal gland (6 h): 261.0
- fluorescence intensity in Seminal gland (16 h): 163.0
- fluorescence intensity in Seminal gland (24 h): 170.6
- fluorescence intensity in Seminal gland (48 h): 166.7
- fluorescence intensity in Seminal gland (72 h): 74.4
- fluorescence intensity in Seminal glands (Seminal glands, 2 h): 175.3
- fluorescence intensity in Spleen (2 h): 455.7
- fluorescence intensity in Spleen (4 h): 407.4
- fluorescence intensity in Spleen (6 h): 488.6
- fluorescence intensity in Spleen (16 h): 373.3
- fluorescence intensity in Spleen (24 h): 638.0
- fluorescence intensity in Spleen (48 h): 656.7
- fluorescence intensity in Spleen (72 h): 278.0
- fluorescence intensity in Testicle (2 h): 639.9
- fluorescence intensity in Testicle (4 h): 470.9
- fluorescence intensity in Testicle (6 h): 723.1
- fluorescence intensity in Testicle (16 h): 525.4
- fluorescence intensity in Testicle (48 h): 648.6
- fluorescence intensity in Testicle (72 h): 481.2
